Laboratory results: US20240410013A1, “METHODS AND COMPOSITIONS FOR CLASSIFYING AND TREATING KIDNEY CANCER” (Genentech, Inc., priority 2021, published 2024)

Test system: previously untreated advanced renal cell carcinoma
Experiment: IMmotion151 (NCT02420821) Phase 3 randomized trial, atezolizumab plus bevacizumab versus sunitinib, clinical outcomes by biomarker subgroup
Type: in vivo, human
Source text: IMmotion151 (NCT02420821) was a multicenter, open-label, Phase 3, randomized controlled trial of atezolizumab plus bevacizumab (n=454) versus sunitinib (n=461) in patients with previously untreated advanced RCC (Rini et al. Lancet. 393: 2404-2415 (2019)). The study design, methods, and primary clinical findings from IMmotion151 have been reported previously (Rini et al. Lancet. 393: 2404-2415 (2019)).
Briefly, previously untreated patients with unresectable locally advanced or metastatic renal cell carcinoma with any component of clear-cell or sarcomatoid histology were randomized to receive atezolizumab 1200 mg+bevacizumab 15 mg/kg (atezolizumab+bevacizumab) once every 3 weeks (n=454) or sunitinib 50 mg once daily (n=461; 4 weeks on, 2 weeks off). The co-primary endpoints were investigator-assessed progression-free survival (PFS) in patients with ≥1% expressing PD-L1 on immune cells (IC, PD-L1^+) and overall survival (OS) in the intent-to-treat (ITT) population.
IMmotion151 (NCT02420821) was a multicenter, open-label, Phase 3, randomized controlled trial of atezolizumab plus bevacizumab (n=454) vs. sunitinib (n=461) in patients with previously untreated advanced renal cell carcinoma (Rini et al. Lancet. 393: 2404-2415 (2019)).
RNA-seq data from the randomized Phase II trial IMmotion150 were processed as described above. Transcriptional signature scores were derived from T-effector and angiogenesis signatures (McDermott et al. Nat Med. 24: 749-757 (2018)) for each sample, and hazard ratios were calculated at various gene expression scores. Gene expression score cutoffs of 2.93 (40% prevalence) and 5.82 (50% prevalence) were defined for the T-effector and angiogenesis signatures in IMmotion150 based on a combination of prevalence and hazard ratio plateauing. These absolute thresholds were prospectively applied to the IMmotion151 data to classify tumors with high and low T-effector and angiogenesis signatures. Cox-proportional hazard regression models were fit to compare PFS in atezolizumab+bevacizumab or sunitinib-treated patients in gene expression high and low subsets.
All analyses were conducted using Rv3.6.1. Unless otherwise stated, all comparisons for continuous variables use the two-sided Mann-Whitney test (R function wilcox.test) for two groups and the Kruskal-Wallis test (R function kruskal.test) for more than two groups. Dunn's post-hoc test was applied with Benjamini-Hochberg multiple testing correction for pairwise comparisons. For categorical variables, Pearson's Chi-squared test with continuity correction was used (R function chisq.test). Unless otherwise stated, false discovery rate (FDR)-adjusted p-values are reported. *: p<0.05; **: p<0.01; ***: p<0.001. Survival analyses were conducted using Cox-proportional hazard models using the R survival package (v 3.1.7). Log-rank p-values were reported for survival analyses including more than two groups. For all boxplots, the horizontal line represents the median. The lower and upper hinges correspond to the first and third quartiles. The upper whisker extends from the hinge to the largest value no further than 1.5*IQR from the hinge (where IQR is the inter-quartile range, or distance between the first and third quartiles). The lower whisker extends from the hinge to the smallest value at most 1.5*IQR of the hinge.

[1] = tumors with CDKN2A/B alterations

For `CCN(CC)CCNC(=O)c1c(C)[nH]c(/C=C2\C(=O)Nc3ccc(F)cc32)c1C` [sunitinib], the ORR (PBRM1 non-mutant tumors) was 27%, the mPFS (PBRM1 non-mutant tumors) was 6.9 months and the ORR (Proliferative cluster (#5)) was 3.1%. The mPFS (Stromal/Proliferative cluster (printed #5)) was 5.2 months, the “objective response rate (ORR)” value (T-effector/Proliferative cluster (#4)) was 19.4% and the mPFS (loss-of-function mutations in ARID1A) was 6.8 months. For the same molecule, the mPFS (loss-of-function mutations in KMT2C) was 7.0 months, the Objective response rate (sRCC (sarcomatoid RCC) patients, RECIST 1.1) was 14% and the mPFS (tumors harboring PBRM1 mutations) was 11.2 months. It also gave an ORR [1] of 20%, a complete responses [1] of 0% and a mPFS [1] of 4.1 months. The “PFS hazard ratio, Angiogenesis signature high vs low” value (within sunitinib treatment arm, 95% CI 0.47, 0.75) was 0.59 and the “PFS hazard ratio, PBRM1 mutant vs non-mutant tumors” value (within sunitinib-treated patients, 95% CI 0.51, 0.87) was 0.67.
